Measured values published in ChEMBL document CHEMBL5096151, “Phytocannabinoid Pharmacology: Medicinal Properties of Cannabis sativa Constituents Aside from the "Big Two"” (J Nat Prod, 2021).
Converted amounts (≈) assume the structure as drawn.

What was measured:
[1] = target: T1, Transient receptor potential cation channel subfamily V member 1 (Homo sapiens, UniProt Q8NER1); assay: Agonist activity at ionomycin-stimulated TRPV1 (unknown origin) activation assessed as efficacy relative to control
[2] = target: T1, Transient receptor potential cation channel subfamily V member 1; assay: Agonist activity at ionomycin-stimulated TRPV1 (unknown origin) channel desensitization in presence of capsaicin
[3] = target: T2, Transient receptor potential cation channel subfamily V member 2 (Homo sapiens, UniProt Q9Y5S1); assay: Agonist activity at ionomycin-stimulated TRPV2 (unknown origin) activation
T2 sequence (Q9Y5S1 whole entry): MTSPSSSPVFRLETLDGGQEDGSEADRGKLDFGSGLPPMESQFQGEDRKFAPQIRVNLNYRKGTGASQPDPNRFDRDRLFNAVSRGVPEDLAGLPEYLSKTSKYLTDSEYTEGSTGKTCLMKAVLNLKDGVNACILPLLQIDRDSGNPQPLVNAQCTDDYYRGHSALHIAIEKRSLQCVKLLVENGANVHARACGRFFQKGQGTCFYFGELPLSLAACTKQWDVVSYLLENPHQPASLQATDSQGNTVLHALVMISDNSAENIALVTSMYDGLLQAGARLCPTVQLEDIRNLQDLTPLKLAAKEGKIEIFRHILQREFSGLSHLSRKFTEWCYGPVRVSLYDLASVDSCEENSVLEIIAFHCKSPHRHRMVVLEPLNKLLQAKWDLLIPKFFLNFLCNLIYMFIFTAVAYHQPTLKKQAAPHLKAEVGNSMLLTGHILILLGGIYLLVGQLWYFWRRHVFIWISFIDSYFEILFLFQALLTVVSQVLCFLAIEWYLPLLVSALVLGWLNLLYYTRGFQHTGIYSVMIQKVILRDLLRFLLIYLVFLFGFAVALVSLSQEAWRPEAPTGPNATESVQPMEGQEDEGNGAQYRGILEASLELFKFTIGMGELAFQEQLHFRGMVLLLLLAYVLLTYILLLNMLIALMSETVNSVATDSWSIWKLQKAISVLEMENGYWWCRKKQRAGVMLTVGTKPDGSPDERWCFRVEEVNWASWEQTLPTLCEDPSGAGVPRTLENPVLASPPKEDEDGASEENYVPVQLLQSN

[4] = target: T3, Transient receptor potential cation channel subfamily V member 2 (Homo sapiens) (UniProt Q9Y5S1); assay: Agonist activity at ionomycin-stimulated TRPV2 (unknown origin) activation assessed as efficacy relative to control; settings: filed as agonist
T3 sequence (whole entry): T2 sequence (Q9Y5S1 whole entry)

[5] = target: T2, Transient receptor potential cation channel subfamily V member 2; assay: Agonist activity at ionomycin-stimulated TRPV2 (unknown origin) channel desensitization in presence of lysophosphatidylcholine
[6] = target: T4, Transient receptor potential cation channel subfamily V member 3 (Homo sapiens, UniProt Q8NET8); assay: Agonist activity at ionomycin-stimulated TRPV3 (unknown origin) activation
T4 sequence (Q8NET8 whole entry): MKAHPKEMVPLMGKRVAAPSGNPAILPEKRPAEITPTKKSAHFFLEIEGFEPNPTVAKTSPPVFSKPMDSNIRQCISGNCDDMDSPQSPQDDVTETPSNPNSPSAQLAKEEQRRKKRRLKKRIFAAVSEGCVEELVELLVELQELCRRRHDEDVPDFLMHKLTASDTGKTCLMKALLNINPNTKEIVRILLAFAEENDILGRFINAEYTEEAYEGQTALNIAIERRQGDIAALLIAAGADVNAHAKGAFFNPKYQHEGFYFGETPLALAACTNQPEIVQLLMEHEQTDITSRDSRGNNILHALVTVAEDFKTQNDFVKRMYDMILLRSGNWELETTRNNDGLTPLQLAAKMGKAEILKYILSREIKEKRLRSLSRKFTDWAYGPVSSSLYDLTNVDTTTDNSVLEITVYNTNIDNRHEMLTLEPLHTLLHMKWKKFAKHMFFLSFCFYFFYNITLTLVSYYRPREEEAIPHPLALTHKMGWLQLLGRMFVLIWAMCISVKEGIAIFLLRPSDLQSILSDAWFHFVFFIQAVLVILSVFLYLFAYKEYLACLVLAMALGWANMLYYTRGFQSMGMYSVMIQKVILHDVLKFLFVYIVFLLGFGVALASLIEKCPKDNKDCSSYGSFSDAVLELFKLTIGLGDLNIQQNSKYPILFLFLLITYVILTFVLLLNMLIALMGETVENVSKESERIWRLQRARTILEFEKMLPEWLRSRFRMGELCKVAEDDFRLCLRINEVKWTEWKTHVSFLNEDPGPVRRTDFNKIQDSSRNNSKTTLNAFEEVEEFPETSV

[7] = target: T5, Transient receptor potential cation channel subfamily V member 3 (Homo sapiens) (UniProt Q8NET8); assay: Agonist activity at ionomycin-stimulated TRPV3 (unknown origin) activation assessed as efficacy relative to control; settings: filed as agonist
T5 sequence (whole entry): T4 sequence (Q8NET8 whole entry)

[8] = target: T4, Transient receptor potential cation channel subfamily V member 3; assay: Agonist activity at ionomycin-stimulated TRPV3 (unknown origin) channel desensitization in presence of carvacrol
[9] = target: T6, Transient receptor potential cation channel subfamily V member 4 (Homo sapiens, UniProt Q9HBA0); assay: Agonist activity at ionomycin-stimulated TRPV4 (unknown origin) activation
[10] = target: T6, Transient receptor potential cation channel subfamily V member 4; assay: Agonist activity at ionomycin-stimulated TRPV4 (unknown origin) activation assessed as efficacy relative to control; settings: filed as agonist
[11] = target: T6, Transient receptor potential cation channel subfamily V member 4; assay: Agonist activity at ionomycin-stimulated TRPV4 (unknown origin) channel desensitization in presence of 4alphaPDD
[12] = target: T7, Transient receptor potential cation channel subfamily A member 1 (Homo sapiens, UniProt O75762); assay: Agonist activity at TRPA1 (unknown origin) activation
[13] = target: T7, Transient receptor potential cation channel subfamily A member 1; assay: Agonist activity at TRPA1 (unknown origin) activation assessed as efficacy relative to control; settings: filed as agonist
[14] = target: T7, Transient receptor potential cation channel subfamily A member 1; assay: Agonist activity at TRPA1 (unknown origin) channel desensitization in presence of isothiocyanate
[15] = target: T7, Transient receptor potential cation channel subfamily A member 1; assay: Agonist activity at TRPA1 (unknown origin) channel desensitization in presence of icilin
[16] = target: T8, Cannabinoid receptor 1 (Homo sapiens, UniProt P21554); assay: Binding affinity to CB1 (unknown origin) assessed as inhibition constant
[17] = target: T8, Cannabinoid receptor 1; assay: Binding affinity to CB1 (unknown origin) expressed in CHO -k1 cells assessed as inhibition constant; assay type: cell-based
[18] = target: T9, Cannabinoid receptor 2 (Homo sapiens, UniProt P34972); assay: Binding affinity to CB2 receptor (unknown origin) expressed in CHO -k1 cells assessed as inhibition constant; assay type: cell-based
[19] = target: T9, Cannabinoid receptor 2; assay: Binding affinity to CB2 receptor (unknown origin) expressed in AtT20 cells assessed as inhibition constant; assay type: cell-based
[20] = tested on: HT-22; assay: Neuroprotection against glutamate-induced oxytosis in mouse HT-22 cells assessed as cell viability; assay type: functional, cell-based
[21] = tested on: Staphylococcus aureus; assay: Antibacterial activity against methicillin-resistant Staphylococcus aureus; assay type: functional
[22] = target: Cytochrome P450 2J2 (Homo sapiens, UniProt P51589); assay: Non competitive inhibition of CYP2J2 (unknown origin) in presence of NADPH by LC-MS/MS analysis; assay type: ADME
[23] = target: T10, Cytochrome P450 2A6 (Homo sapiens, UniProt P11509); assay: Non competitive inhibition of recombinant human CYP2A6 using coumarin as substrate preincubated with NADPH for 20 mins and measured after 30 min; assay type: ADME
[24] = target: T10, Cytochrome P450 2A6; assay: Non competitive inhibition of recombinant human CYP2A6 using coumarin as substrate preincubated with NADPH for 20 mins and measured after 30 min by Lineweaver-burk plots analysis; assay type: ADME
[25] = target: T11, Cytochrome P450 2B6 (Homo sapiens, UniProt P20813); assay: Mixed inhibition of recombinant human CYP2B6 using coumarin as substrate preincubated with NADPH for 20 mins and measured after 30 min by Lineweaver-burk plots analysis; assay type: ADME
T11 sequence (P20813 whole entry): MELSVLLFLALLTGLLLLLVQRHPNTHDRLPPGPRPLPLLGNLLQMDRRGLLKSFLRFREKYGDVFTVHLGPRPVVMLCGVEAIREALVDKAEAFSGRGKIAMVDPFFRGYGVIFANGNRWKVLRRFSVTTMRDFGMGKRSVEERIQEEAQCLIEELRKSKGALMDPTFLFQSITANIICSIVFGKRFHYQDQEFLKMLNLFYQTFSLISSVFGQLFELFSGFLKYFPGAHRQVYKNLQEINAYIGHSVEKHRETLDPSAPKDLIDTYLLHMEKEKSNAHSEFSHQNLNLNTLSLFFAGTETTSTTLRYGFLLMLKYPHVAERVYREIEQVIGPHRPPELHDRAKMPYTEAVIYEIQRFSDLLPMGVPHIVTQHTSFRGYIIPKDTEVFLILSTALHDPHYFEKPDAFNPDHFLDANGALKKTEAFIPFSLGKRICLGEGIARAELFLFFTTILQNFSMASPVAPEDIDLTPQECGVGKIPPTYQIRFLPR

[26] = target: T11, Cytochrome P450 2B6; assay: Inhibition of recombinant human CYP2B6 using coumarin as substrate preincubated with NADPH for 20 mins and measured after 30 min by Lineweaver-burk plots analysis; assay type: ADME

T7 sequence (O75762 whole entry): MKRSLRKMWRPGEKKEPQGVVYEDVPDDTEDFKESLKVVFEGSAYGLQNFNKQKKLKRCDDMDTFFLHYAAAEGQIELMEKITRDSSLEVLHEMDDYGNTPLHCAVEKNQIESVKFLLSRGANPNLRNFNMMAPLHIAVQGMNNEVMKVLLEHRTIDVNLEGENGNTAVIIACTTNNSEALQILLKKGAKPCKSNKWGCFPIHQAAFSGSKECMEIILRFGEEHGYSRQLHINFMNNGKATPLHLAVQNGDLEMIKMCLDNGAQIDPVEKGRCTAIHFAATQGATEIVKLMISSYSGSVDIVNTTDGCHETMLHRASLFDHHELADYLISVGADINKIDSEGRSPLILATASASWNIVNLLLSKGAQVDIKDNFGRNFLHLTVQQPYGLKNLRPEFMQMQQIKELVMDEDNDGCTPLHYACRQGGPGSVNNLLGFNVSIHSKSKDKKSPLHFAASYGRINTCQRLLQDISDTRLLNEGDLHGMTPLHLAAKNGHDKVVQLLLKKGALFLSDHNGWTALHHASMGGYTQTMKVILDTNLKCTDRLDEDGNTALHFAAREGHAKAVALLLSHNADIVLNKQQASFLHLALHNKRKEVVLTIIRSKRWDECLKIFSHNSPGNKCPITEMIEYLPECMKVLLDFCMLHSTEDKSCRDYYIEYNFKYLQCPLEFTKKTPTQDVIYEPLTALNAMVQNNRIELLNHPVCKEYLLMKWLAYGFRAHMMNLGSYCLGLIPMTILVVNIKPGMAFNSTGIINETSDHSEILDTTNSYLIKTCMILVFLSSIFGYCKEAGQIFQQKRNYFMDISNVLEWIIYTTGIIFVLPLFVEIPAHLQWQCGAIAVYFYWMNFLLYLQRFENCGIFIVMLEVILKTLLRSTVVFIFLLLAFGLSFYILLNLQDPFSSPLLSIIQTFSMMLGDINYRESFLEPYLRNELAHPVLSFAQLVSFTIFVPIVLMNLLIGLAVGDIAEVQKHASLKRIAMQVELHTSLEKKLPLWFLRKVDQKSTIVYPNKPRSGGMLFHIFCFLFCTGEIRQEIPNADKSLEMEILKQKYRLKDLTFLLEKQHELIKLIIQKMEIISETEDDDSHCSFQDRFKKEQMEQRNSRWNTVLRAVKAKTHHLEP
T6 sequence (Q9HBA0 whole entry): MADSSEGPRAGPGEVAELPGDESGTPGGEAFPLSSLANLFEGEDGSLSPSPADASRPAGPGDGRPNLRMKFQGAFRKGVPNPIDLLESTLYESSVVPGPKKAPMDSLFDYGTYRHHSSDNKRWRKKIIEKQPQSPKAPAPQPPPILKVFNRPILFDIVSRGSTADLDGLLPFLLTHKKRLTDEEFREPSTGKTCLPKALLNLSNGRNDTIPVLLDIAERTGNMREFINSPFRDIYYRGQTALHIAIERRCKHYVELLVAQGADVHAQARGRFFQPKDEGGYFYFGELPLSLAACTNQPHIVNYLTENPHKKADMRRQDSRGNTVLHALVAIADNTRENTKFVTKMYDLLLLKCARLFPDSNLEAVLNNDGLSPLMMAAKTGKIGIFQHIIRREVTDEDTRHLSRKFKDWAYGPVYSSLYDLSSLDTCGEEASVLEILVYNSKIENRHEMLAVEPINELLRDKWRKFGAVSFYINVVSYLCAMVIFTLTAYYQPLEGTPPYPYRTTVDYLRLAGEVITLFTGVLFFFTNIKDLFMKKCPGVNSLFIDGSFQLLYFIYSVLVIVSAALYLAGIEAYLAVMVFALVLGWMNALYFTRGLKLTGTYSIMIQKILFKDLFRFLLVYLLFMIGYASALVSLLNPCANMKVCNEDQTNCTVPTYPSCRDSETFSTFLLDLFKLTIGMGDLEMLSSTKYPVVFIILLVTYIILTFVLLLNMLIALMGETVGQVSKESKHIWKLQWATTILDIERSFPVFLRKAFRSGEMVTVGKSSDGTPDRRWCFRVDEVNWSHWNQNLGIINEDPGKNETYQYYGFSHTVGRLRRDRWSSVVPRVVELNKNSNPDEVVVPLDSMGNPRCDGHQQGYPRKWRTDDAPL
T9 sequence (P34972 whole entry): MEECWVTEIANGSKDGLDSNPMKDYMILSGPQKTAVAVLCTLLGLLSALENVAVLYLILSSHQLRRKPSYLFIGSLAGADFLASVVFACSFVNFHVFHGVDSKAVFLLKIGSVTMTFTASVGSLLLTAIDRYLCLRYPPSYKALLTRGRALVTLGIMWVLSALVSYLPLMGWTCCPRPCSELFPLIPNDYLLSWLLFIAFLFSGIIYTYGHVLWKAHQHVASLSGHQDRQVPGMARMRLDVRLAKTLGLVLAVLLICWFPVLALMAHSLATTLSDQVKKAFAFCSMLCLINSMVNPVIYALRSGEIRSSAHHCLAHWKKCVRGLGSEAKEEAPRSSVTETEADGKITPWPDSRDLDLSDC
T10 sequence (P11509 whole entry): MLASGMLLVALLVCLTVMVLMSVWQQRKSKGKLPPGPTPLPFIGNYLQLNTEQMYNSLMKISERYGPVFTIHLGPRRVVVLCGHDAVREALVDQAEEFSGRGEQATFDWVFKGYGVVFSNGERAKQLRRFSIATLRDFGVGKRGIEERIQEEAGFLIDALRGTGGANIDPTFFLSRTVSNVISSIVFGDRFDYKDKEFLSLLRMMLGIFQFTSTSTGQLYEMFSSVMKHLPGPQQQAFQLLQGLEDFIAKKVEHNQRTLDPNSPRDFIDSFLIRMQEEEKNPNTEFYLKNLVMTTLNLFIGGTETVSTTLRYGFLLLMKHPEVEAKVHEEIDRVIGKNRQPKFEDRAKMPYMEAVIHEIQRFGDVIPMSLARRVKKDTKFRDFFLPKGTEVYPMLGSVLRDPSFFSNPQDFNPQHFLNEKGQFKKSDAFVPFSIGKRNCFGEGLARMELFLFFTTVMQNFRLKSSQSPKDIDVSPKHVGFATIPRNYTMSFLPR
T8 sequence (P21554 whole entry): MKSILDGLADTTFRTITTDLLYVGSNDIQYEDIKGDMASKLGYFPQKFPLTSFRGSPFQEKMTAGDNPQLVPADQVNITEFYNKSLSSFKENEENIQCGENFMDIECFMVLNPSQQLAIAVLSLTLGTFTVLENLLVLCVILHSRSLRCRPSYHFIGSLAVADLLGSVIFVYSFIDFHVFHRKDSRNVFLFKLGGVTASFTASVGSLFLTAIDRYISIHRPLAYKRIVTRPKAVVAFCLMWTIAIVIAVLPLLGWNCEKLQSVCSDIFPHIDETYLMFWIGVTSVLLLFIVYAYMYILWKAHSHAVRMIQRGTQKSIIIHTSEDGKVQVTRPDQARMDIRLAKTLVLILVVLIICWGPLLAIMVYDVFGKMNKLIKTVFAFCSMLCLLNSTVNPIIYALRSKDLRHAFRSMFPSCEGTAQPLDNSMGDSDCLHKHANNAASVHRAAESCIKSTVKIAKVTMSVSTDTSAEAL
T1 sequence (Q8NER1 whole entry): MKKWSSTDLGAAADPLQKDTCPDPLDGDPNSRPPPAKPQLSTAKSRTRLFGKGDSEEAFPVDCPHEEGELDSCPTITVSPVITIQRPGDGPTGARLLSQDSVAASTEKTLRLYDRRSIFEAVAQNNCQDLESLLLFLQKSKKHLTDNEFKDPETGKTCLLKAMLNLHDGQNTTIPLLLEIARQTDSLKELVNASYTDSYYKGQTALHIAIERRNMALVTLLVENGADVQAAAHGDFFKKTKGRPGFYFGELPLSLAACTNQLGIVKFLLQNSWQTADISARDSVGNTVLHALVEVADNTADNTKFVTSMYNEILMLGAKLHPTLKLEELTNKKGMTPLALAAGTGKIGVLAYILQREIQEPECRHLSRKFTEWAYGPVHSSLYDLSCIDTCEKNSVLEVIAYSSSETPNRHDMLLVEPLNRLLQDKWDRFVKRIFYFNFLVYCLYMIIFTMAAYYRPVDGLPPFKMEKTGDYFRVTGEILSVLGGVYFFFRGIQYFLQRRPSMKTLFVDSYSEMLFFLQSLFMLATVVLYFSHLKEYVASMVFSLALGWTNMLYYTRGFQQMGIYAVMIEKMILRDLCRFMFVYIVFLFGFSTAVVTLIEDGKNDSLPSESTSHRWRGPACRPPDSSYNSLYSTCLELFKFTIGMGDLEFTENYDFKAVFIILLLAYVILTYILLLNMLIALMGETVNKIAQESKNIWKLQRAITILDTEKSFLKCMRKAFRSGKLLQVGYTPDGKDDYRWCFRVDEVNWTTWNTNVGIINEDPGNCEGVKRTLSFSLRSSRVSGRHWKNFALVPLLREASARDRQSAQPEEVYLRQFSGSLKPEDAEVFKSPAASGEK
Chain of Cytochrome P450 2J2 (P51589 whole entry): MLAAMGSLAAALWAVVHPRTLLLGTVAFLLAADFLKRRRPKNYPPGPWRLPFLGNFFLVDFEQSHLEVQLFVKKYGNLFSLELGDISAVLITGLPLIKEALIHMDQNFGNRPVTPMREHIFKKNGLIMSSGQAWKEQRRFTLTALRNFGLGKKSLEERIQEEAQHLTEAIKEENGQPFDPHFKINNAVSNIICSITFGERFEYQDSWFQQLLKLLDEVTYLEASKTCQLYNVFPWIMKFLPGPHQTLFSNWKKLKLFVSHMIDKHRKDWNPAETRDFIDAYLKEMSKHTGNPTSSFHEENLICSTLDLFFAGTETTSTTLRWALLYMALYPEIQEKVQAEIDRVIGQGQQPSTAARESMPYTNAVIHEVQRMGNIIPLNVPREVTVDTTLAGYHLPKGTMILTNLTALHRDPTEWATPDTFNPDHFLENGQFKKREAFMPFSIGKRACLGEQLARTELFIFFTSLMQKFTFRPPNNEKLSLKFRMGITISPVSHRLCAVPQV

SMILES: CCCCCc1cc(O)c2c(c1)OC(C)(C)c1ccc(C)cc1-2 [CANNABINOL]
- Efficacy [1]: < 10%
- IC50 [2]: 82 µM
- EC50 [3]: 19 µM
- Efficacy [4]: 74%
- IC50 [5]: 15.7 µM
- EC50 [6]: 5.3 µM
- Efficacy [7]: 72%
- IC50 [8]: 9.4 µM
- EC50 [9]: 16.1 µM
- Efficacy [10]: 60%
- IC50 [11]: 5.4 µM
- EC50 [12]: 0.18 µM
- Efficacy [13]: 243%
- IC50 [14]: 0.4 µM
- IC50 [15]: 0.21 µM
- Ki [16]: 1.1 µM
- Ki [17]: 0.07 µM
- Ki [18]: 0.07 µM
- Ki [19]: 0.3 µM
- EC50 [20]: 0.61 µM
- MIC [21]: 1 µg/mL (≈ 3.22 µM)
- IC50 [22]: 19 µM
- IC50 [23]: 30.4 µM
- Ki [24]: 1 µM
- Ki [25]: 39 µM
- Ki [26]: 2.55 µM
